The values that follow come from patent publication US8093207B2, “Fast-acting oral peptide pharmaceutical products” (Unigene Laboratories, Inc., priority 2005, dated 2012).

Data set [1] can be described thus: Absorption of non-sCT peptides from non-enteric coated capsules given orally to fasted dogs. As to conditions: in vivo, 2.4 mg; Table 9: dog, oral non-enteric capsule, at least 500 mg citric acid, 50 mg lauroylcarnitine; ± sem. As to the method: Size 00 UPMC capsules were each filled with a powdered blend consisting of at least 500 mg citric acid, 50 mg lauroylcarnitine and 1 of the indicated peptides. Each week eight fasted dogs were orally administered 1 of the uncoated capsules. After administration of the capsule, samples of blood were taken at 15 minute intervals from an indwelling catheter for up to 4 hours. The blood samples were centrifuged and the resulting plasma supernatants were stored frozen at −20° C.

Data set [2] is described as follows: in vivo. On the procedure:
Female Wistar rats (250-275 g) (n=3 for each formulation) were anesthetized with ketamine and xylazine prior to the insertion of a cannula in the carotid artery. The cannula was fitted to a three way valve through which blood was sampled and replaced with physiological saline. A midline incision was made in the abdominal cavity and 0.5 ml of formulation was injected directly into the exposed duodenum. The pH of the formulation was adjusted by mixing varying amounts of equal molar concentrations of citric acid and sodium citrate. Blood (0.5 ml) was collected before and at 5, 15, 30, 60 and 120 minutes after the administration of the formulation. Samples of blood were centrifuged for 10 minutes at 2600 g and the resulting plasma supernatant was stored at −20° C. The concentration of calcitonin in plasma was determined by a competitive radioimmunoassay. The absolute bioavailability (i.e., relative to an intravenous dose of calcitonin) was calculated from the areas under the curve obtained from plots of the plasma concentration of calcitonin as a function of time.
Samples of blood were removed at various times and analyzed for the indicated peptide as described previously.

The nature of data set [3]: Absorption of sCT from orally administered capsules (enteric-coated or uncoated) in fasted dogs, plasma ELISA. The data set is classed as in vivo, dog. As to conditions: for Tmax / Cmax: plasma. An excerpt: Size 00 UPMC (hydroxypropylmethyl cellulose) capsules were each filled with a powdered blend consisting of citric acid, lauroylcarnitine, and salmon calcitonin (sCT). Half the capsules were coated with an enteric coating solution of […] L30D-55 (a methacrylic acid co-polymer with methacrylic acid methyl ester, an enteric coating available from ROUM Tech Inc., Maidan, Mass.), and the remaining capsules were not enteric coated. The coating process corresponded to that taught in U.S. Pat. No. 6,086,918 at col. 11, line 50 to col. 12, line 11. Eight fasted dogs were each orally administered 1 uncoated capsule and 2 weeks later they were each orally administered an enteric-coated capsule. After administration of each capsule, samples of blood were taken at 15 minute intervals from an indwelling catheter for up to 4 hours. The blood samples were centrifuged and the resulting plasma supernatants were stored frozen at −20° C. The plasma samples were subsequently analyzed for sCT by a direct ELISA. […] Nearly three times as much sCT was detected in the plasma of dogs given enteric-coated capsules than non-coated capsules. The maximum concentration of sCT in dogs orally administered uncoated capsules was seen within 30 minutes after their administration. The maximum concentration of sCT in dogs given enteric-coated capsules was seen 98 minutes after their administration. […] The increased speed can be advantageous, especially in the case of peptides wherein speed is more important than overall bioavailability (e.g., pain relievers). There can also be an advantage in production efficiency when the enteric coating step is not required.
Size 00 UPMC (hydroxypropylmethyl cellulose) capsules were each filled with a powdered blend consisting of the indicated amount of citric acid, lauroylcarnitine, sucrose and salmon calcitonin (sCT). Each week eight fasted dogs were each orally administered 1 of the uncoated capsules. After administration of the capsule, samples of blood were taken at 15 minute intervals from an indwelling catheter for up to 4 hours. The blood samples were centrifuged and the resulting plasma supernatants were stored frozen at −20° C. The plasma samples were subsequently analyzed for sCT by a direct ELISA. […] In the absence of citric acid but in the presence of lauroylcarnitine the maximum concentration of sCT in the plasma of dogs decreased by 80%. In the absence of citric acid and lauroylcarnitine, the maximum concentration of sCT in dogs decreased by 99%.
In general terms: ELISA stands for enzyme-linked immunosorbent assay.

The conditions of data set [4]: cited from earlier work.
Data set [5] can be described thus: Blood levels of salmon calcitonin after direct injection of active components into duodenum, ilium or colon. As to conditions: other: injected directly into the duodenum. The class given is in vivo. An excerpt:
The pH-lowering agent is believed to lower the local pH (where the active agent has been released) to levels below the optimal range for many intestinal proteases. This decrease in pH reduces the proteolytic activity of the intestinal proteases, thus affording protection to the peptide from potential degradation should the peptide be present within the intestine. The activity of these proteases is diminished by the temporarily acidic environment provided by the invention. It is preferred that sufficient acid be provided that local intestinal pH is lowered temporarily to 5.5 or below, preferably 4.7 or below and more preferably 3.5 or below. The sodium bicarbonate test described below (in the section captioned “the pH-Lowering Agent”) is indicative of the required acid amount. […] The absorption enhancers of the invention synergistically promote peptide absorption into the blood while conditions of reduced proteolytic activity prevail. The mechanism by which the invention is believed to accomplish the goal of enhanced bioavailability is aided by having active components of the finished pharmaceutical product released together as simultaneously as possible.

A short description of data set [6]: Dissolution of human insulin in water with or without citric acid.
[7] abbreviates: female, Wistar, rat, in vivo, 0.1 mg.
The mark [8] stands for this setting: female, Wistar, rat, in vivo, 1 mg.
Setting [9] is: Table 6: rat, intraduodenal, insulin 1 mg with citric acid 48 mg only.

`Cc1cc(O)cc(C)c1C[C@H](N)C(=O)N[C@H](CCCNC(=N)N)C(=O)N[C@@H](Cc1ccccc1)C(=O)N[C@@H](CCCCN)C(N)=O` [Dmt-DALDA, H-2,6-dimethyltyrosine-D-Arginine-Phenylalanine-Lysine-NH2]: in data set [1], the Cmax amounted to 7.48 ± 1.49 ng/mL and the Tmax was 28 min.

A word on the half-life: it is the time needed for the level to fall by half in the phase considered. With `CC(C)C[C@H](NC(=O)[C@H](CCCCN)NC(=O)CNC(=O)[C@H](CC(C)C)NC(=O)[C@@H](NC(=O)[C@@H]1CSSC[C@H](N)C(=O)N[C@@H](CO)C(=O)N[C@@H](CC(N)=O)C(=O)N[C@@H](CC(C)C)C(=O)N[C@@H](CO)C(=O)N[C@@H]([C@@H](C)O)C(=O)N1)C(C)C)C(=O)N[C@@H](CO)C(=O)N[C@@H](CCC(N)=O)C(=O)N[C@@H](CCC(=O)O)C(=O)N[C@@H](CC(C)C)C(=O)N[C@@H](Cc1c[nH]cn1)C(=O)N[C@@H](CCCCN)C(=O)N[C@@H](CC(C)C)C(=O)N[C@@H](CCC(N)=O)C(=O)N[C@H](C(=O)N[C@@H](Cc1ccc(O)cc1)C(=O)N1CCC[C@H]1C(=O)N[C@@H](CCCNC(=N)N)C(=O)N[C@H](C(=O)N[C@@H](CC(N)=O)C(=O)N[C@H](C(=O)NCC(=O)N[C@@H](CO)C(=O)NCC(=O)N[C@H](C(=O)N1CCC[C@H]1C(N)=O)[C@@H](C)O)[C@@H](C)O)[C@@H](C)O)[C@@H](C)O` [Salmon Calcitonin], the “Absolute Bioavailability” value in data set [2] (female, Wistar, rat, in vivo) is 4.81%. Besides, the Cmax in data set [2] (setting [7]) is 27.7 ng/mL; in data set [3] (Table 7: dog, oral capsule, enteric coat no, citric acid 643 mg, lauroylcarnitine 66 mg, sCT 13.07 mg, ± sem), 3.29 ± 0.823 ng/mL; in data set [3] (Table 7: dog, oral capsule, enteric coat yes, citric acid 632 mg, lauroylcarnitine 65 mg, sCT 12.84 mg, ± sem) it was 15.8 ± 4.2 ng/mL; in data set [3] (Table 8: dog, oral non-enteric capsule, citric acid 0, lauroylcarnitine 70 mg, sucrose 712 mg, sCT 6.17 mg), 1.02 ± 0.57 ng/mL; in data set [3] (Table 8: dog, oral non-enteric capsule, citric acid 679 mg, lauroylcarnitine 67 mg, sucrose 0, sCT 5.37 mg) it was 5.43 ± 3.2 ng/mL. Also, the bioavailability came out at 0.096% in data set [2] (female, Wistar, rat, in vivo, 1 mg, Absolute Bioavailability) and 4.53% in data set [2] (female, Wistar, rat, in vivo, Absolute Bioavailability). For the same compound, in data set [2] (rat, in vivo), the “Increase in absolute bioavailability” value is 50 fold. The “Decrease of maximum concentration of sCT” value in data set [3] (Table 8, dog: absence of citric acid and lauroylcarnitine) came to 99%. For the same compound, in data set [3] (Table 8, dog: absence of citric acid but presence of lauroylcarnitine), the “Decrease of maximum concentration of sCT in plasma” value is 80%. In addition, the “Cmax (maximum plasma concentration sCT corrected to 1 mg dose)” value stood at 0.018 ± 0.012 ng/mL in data set [3] (Table 8: dog, oral non-enteric capsule, citric acid 0, lauroylcarnitine 0, sucrose 805 mg, sCT 5.31 mg) and 4.612 ± 2.766 ng/mL in data set [3] (Table 8: dog, oral non-enteric capsule, citric acid 824 mg, lauroylcarnitine 0, sucrose 0, sCT 5.31 mg). For the same compound, the Tmax in data set [3] (dog, po, 5.31 mg, Table 8: dog, oral non-enteric capsule, citric acid 0, lauroylcarnitine 0, sucrose 805 mg, sCT 5.31 mg, sCT only detected in 1 of 8 dogs, read-out: Tmax (converted)) is 225 min; in data set [3] (dog, po, 5.31 mg, Table 8: dog, oral non-enteric capsule, citric acid 824 mg, lauroylcarnitine 0, sucrose 0, sCT 5.31 mg, read-out: Tmax (converted)), 24 min; in data set [3] (dog, po, 5.37 mg, Table 8: dog, oral non-enteric capsule, citric acid 679 mg, lauroylcarnitine 67 mg, sucrose 0, sCT 5.37 mg, read-out: Tmax (converted)), 26 min; in data set [3] (dog, po, 6.17 mg, Table 8: dog, oral non-enteric capsule, citric acid 0, lauroylcarnitine 70 mg, sucrose 712 mg, sCT 6.17 mg, read-out: Tmax (converted)), 41 min; in data set [3] (Table 7: dog, oral capsule, enteric coat no, citric acid 643 mg, lauroylcarnitine 66 mg, sCT 13.07 mg, ± sem, read-out: Tmax (time when maximum plasma sCT concentration detected) (converted)), not above 30 min; in data set [3] (Table 7: dog, oral capsule, enteric coat yes, citric acid 632 mg, lauroylcarnitine 65 mg, sCT 12.84 mg, ± sem, read-out: Tmax (time when maximum plasma sCT concentration detected) (converted)), 98 min. In addition, the Tmax in data set [5] lay within 5 to 15 min. Moreover, the half-life in data set [4] (following subcutaneous administration in man) is 20 to 40 min. Besides, the “peak levels at which effective against osteoporosis” value in data set [4] (nasally administered, 200 International units) is not below 10 picograms per milliliter. For the same compound, in data set [4] (notwithstanding rapid decrease in blood levels), the “duration of beneficial effect on osteoclasts” value is “more than 24 hours”. Further, the “peak levels at which some patients report gastrointestinal distress” value in data set [4] (patients, high peak levels) was not below 200 picograms per milliliter. Also, in data set [4] (subcutaneous administration, 100 International units), the peak serum concentration entry is “about 250 picograms per milliliter”.

Regarding `NC(=O)CC[C@@H]1NC(=O)[C@H](Cc2ccccc2)NC(=O)[C@H](Cc2ccc(O)cc2)NC(=O)[C@@H](N)CSSC[C@@H](C(=O)N2CCC[C@H]2C(=O)N[C@@H](CCCN=C(N)N)C(=O)NCC(N)=O)NC(=O)[C@H](CC(N)=O)NC1=O` [[Arg^8]-Vasopressin, [Arg^8]-vasopressin], the Cmax was determined as 24.3 ng/mL in data set [2] (setting [7]) and 0.62 ng/mL in data set [2] (setting [8]). Moreover, the bioavailability was 8.1% in data set [2] (setting [7]) and 0.38% in data set [2] (setting [8]).

In the case of “Human Insulin: peptide pharmaceutical frequently administered by injection”, in data set [2] (Table 6, rat: lauroylcarnitine included vs citric acid alone), the “Increase in absolute bioavailability” value was found to be 10 fold. For the same compound, the “Absolute Bioavailability” value in data set [2] (setting [9]) was 0.07%. The “Peak Plasma Peptide” value in data set [2] (setting [9]) was determined as 0.56 ng/mL; in data set [2] (Table 6: rat, intraduodenal, peptide 0.1 mg (insulin 1 mg) with citric acid 48 mg and lauroylcarnitine 5 mg) it was 18.3 ng/mL. Besides, the values for the dissolution in water result in data set [6] (in the absence of citric acid) and in data set [6] (in the presence of citric acid) were “could not even be dissolved in water” and “all of the peptide was easily dissolved”, respectively.
